“Also recorded” adds a separate entry of the source.
System: SKOV3, T47D, MCF-7, MDA-MB-231, HEK293 and HEK-hTRPV6 cells
Assay: Antiproliferative activity, XTT, all six cell lines
Assay type: cell-based, human
Conditions: 6 days, up to 100 µM
Source text: Here, we compared the effects of 1 and 39 on SKOV3 and T47D, as well as on MCF-7 and MDA-MB-231 as two additional breast cancer cell lines with low levels of TRPV6.[13],[44] Previous studies have shown that RNA silencing (siRNA) of TRPV6 reduces T47D cell proliferation.[11],[13]
Note that HEK-hTRPV6 was more susceptible to 1 toxicity than HEK293 wt cells, which might be related to the fact that HEK-hTRPV6 overexpressing cells proliferate faster than HEK293 wt cells in a Ca^2+-dependent manner (Table S3 ^†).[46] […] This highlights the need for future studies to uncover the precise role of TRPV6 in cancer progression.
12. Antiproliferative activity
Unless specified cell culture reagents were obtained from Gibco, Life Technology, Switzerland. MCF -7 (human mammary adenocarcinoma), MDA-MB-231 (human mammary adenocarcinoma) were obtained from the ATCC cell bank. T47D (human mammary ductal carcinoma) cell line was obtained from NIH cell collection. These cells were grown in RPMI medium complemented with 10% FBS, 2mM L-Glutamine, 100 U/ml Penicillin and 100 μg/ml Streptomycin (Sigma) and 1% non-essential amino acids (Bioconcept, Switzerland). HEK293 (human embryonic kidney) and SKOV-3 (human ovary adenocarcinoma) cell lines were obtained from the ATCC cell bank. HEK-hTRPV6 and HEK293 and SKOV-3 were grown in DMEM medium supplemented with 10% FBS, 2mM L-Glutamine, 100 U/ml Penicillin and 100 μg/ml Streptomycin (Sigma) and 1% non-essential amino acids (Bioconcept, Switzerland).
The XTT assay was used to evaluate cell proliferation. Cells were plated at a density of 5 x 10^3 cells/well in 96-well plates and were incubated at 37 °C for 24 h. On the following day, the medium was carefully […]
Doxorubicin (10 µM) and DMSO (0.01 %) were used as positive and negative controls, respectively. All the treatments used the original cell medium (RPMI or DMEM), depending on the cell line. Cells were incubated for a total of 6 days at 37 °C with the medium (treatment and controls) being replaced by a freshly prepared solution every 48 h. Then, 25 μL of XTT (with 1.25 % of PMS) was added to each well and incubated at 37 °C for 2 h. Subsequently, the absorbance was read at 650 nm and subtracted from the […]
The resulting subtracted absorbance for each compound concentration (At) was expressed as a percentage of viable cells relative to the negative control (Ab), and the percentage of viable cells was plotted and the inhibition curves obtained by non-linear regression using the built-in log(inhibitor) vs. response-variable slope function (GraphPad® Prism, v. 5.0, San Diego, CA, US).
. Data shown are mean ± SEM (n =
3/concentration) of at least 3 independent experiments. ND = not determined, no inhibition of cell

O=c1ccc(CN2CCN([C@H]3CC[C@@](O)(c4cccc(C(F)(F)F)c4)CC3)CC2)c[nH]1 [compound 39]
effect on cell proliferation / cellular toxicity: did not observe any significant decrease in proliferation; also recorded: does not display any measurable cellular toxicity
effect on cell proliferation / cellular toxicity (listed as 3OG): does not exhibit any non-specific toxicity effects
